Test results taken from patent publication US20230391756A1, “NEW COMPOUND” (JANSSEN PHARMACEUTICA NV, priority 2020, published 2023).

Experiments:
[1] = system: NLRP3 inflammasome pathway (IL-1β); experiment: PBMC assay: IL-1β release after LPS stimulation; format: cell-based; settings: human PBMCs, 100 ng/ml LPS for 6 hrs, MSD
Description: The activity of a compound according to the present invention can be assessed by in vitro methods.
(§1) Peripheral venous blood was collected from healthy individuals and human peripheral blood mononuclear cells (PBMCs) were isolated from blood by Ficoll-Histopaque (Sigma-Aldrich, A0561) density gradient centrifugation. After isolation, PBMCs were stored in liquid nitrogen for later use. Upon thawing, PBMC cell viability was determined in growth medium (RPMI media supplemented with 10% fetal bovine serum, 1% Pen-Strep and 1% L-glutamine). […] PBMCs were added at a density of 7.5×10^4 cells per well and incubated for 30 min in a 5% CO2 incubator at 37° C. LPS stimulation was performed by addition of 100 ng/ml LPS (final concentration, Invivogen, tlrl-smlps) for 6 hrs followed by collection of cellular supernatant and the analysis of IL-1β (μM) and TNF cytokines levels (μM) via MSD technology according to manufacturers' guidelines (MSD, K151A0H).

[2] = system: TNF; experiment: PBMC assay: TNF cytokine level after LPS stimulation; format: cell-based; settings: human PBMCs, 100 ng/ml LPS for 6 hrs, MSD, read-out: TNFα EC50
Description: as §1

IC50 [1] [µM]	EC50 [2] [µM]	Compound
0.27	> 20	O=C(Cc1nn(C2CC2)c2cc(C(F)(F)F)ccc2c1=O)Nc1ccc2nncn2c1 [F-63]
0.24	8.36	CCn1nc(CC(=O)Nc2ccc3nccn3n2)c(=O)c2ccc(C(C)(F)F)cc21 [F-65]
0.166	17.4	CCn1nc(CC(=O)Nc2ccc3nncn3c2)c(=O)c2ccc(C(C)C)cc21 [F-69]
0.096	6.23	CC(F)(F)c1ccc2c(=O)c(CC(=O)Nc3ccc4nncn4n3)nn(C3CC3)c2c1 [F-72]
0.06	> 20	CCn1nc(CC(=O)Nc2ccc3nncn3n2)c(=O)c2ccc(Br)cc21 [F-73]
–	16.6	CC(C)n1nc(CC(=O)Nc2ccncn2)c(=O)c2ccc(C3CC3)cc21 [F-79, 2-(7-cyclopropyl-1-isopropyl-4-oxo-1,4-dihydrocinnolin-3-yl)-N-(pyrimidin-4-yl)acetamide]
1.21	> 20	CC(C)n1nc(CC(=O)N[C@H]2C[C@@](C)(O)C2)c(=O)c2ccc(C3CC3)cc21 [F-80]
0.166	7.11	CC(C)n1nc(CC(=O)Nc2ccc3nncn3c2)c(=O)c2ccc(C3CC3)cc21 [F-81]
0.18	> 20	CCn1nc(CC(=O)Nc2ccc3nncn3c2)c(=O)c2ccc(C3CC3)cc21 [F-82]
1.15	> 20	CCn1nc(CC(=O)N[C@H]2C[C@@](C)(O)C2)c(=O)c2ccc(C3CC3)cc21 [F-83]
> 20	> 20	CC(C)n1nc(CC(=O)Nc2ccc(C(F)(F)F)nn2)c(=O)c2ccc(C(F)(F)F)cc21 [F-84, 2-(1-isopropyl-4-oxo-7-(trifluoromethyl)-1,4-dihydrocinnolin-3-yl)-N-(6-(trifluoromethyl)pyridazine-3-yl)acetamide]
13.4	> 20	CC(C)n1nc(CC(=O)Nc2ccc(C(F)F)nn2)c(=O)c2ccc(C(F)(F)F)cc21 [F-87]
> 20	> 20	CC(C)n1nc(CC(=O)Nc2nc3ccc(Cl)cc3n2C)c(=O)c2ccc(C(F)(F)F)cc21 [F-89]
> 20	> 20	CC(C)n1nc(CC(=O)Nc2nc3cc(Br)ccc3n2C)c(=O)c2ccc(C(F)(F)F)cc21 [F-90]
6.03	> 20	CC(C)n1nc(CC(=O)Nc2nc3cc(Cl)ccc3o2)c(=O)c2ccc(C(F)(F)F)cc21 [F-102]
2.4	> 20	CCS(=O)(=O)c1ccc2oc(NC(=O)Cc3nn(C(C)C)c4cc(C(F)(F)F)ccc4c3=O)nc2c1 [F-105]
0.99	> 20	O=C(Cc1nn(C2CC2)c2cc(C3CC3)ccc2c1=O)Nc1cn2cnnc2cn1 [F-109]
0.53	> 20	CC(C)n1nc(CC(=O)Nc2cn3cnnc3cn2)c(=O)c2ccc(C(F)(F)F)cc21 [F-112]
3.8	> 20	CC(C)n1nc(CC(=O)Nc2cn3cc(Br)ncc3n2)c(=O)c2ccc(C(F)(F)F)cc21 [F-116, N-(6-bromoimidazo[1,2-a]pyrazin-2-yl)-2-(1-isopropyl-4-oxo-7-(trifluoromethyl)-1,4-dihydrocinnolin-3-yl)acetamide]
0.835	> 20	CC(C)n1nc(CC(=O)Nc2nc3c(Cl)cccn3n2)c(=O)c2ccc(C(F)(F)F)cc21 [F-117]
1.61	> 10	CC(C)n1nc(CC(=O)Nc2nc3ccc(Br)nn3n2)c(=O)c2ccc(C(F)(F)F)cc21 [F-118]
2.18	> 20	COc1ccc2nc(NC(=O)Cc3nn(C(C)C)c4cc(C(F)(F)F)ccc4c3=O)nn2c1 [F-119]
11.6	> 20	CC(C)n1nc(CC(=O)Nc2nc3nccc(C4CC4)n3n2)c(=O)c2ccc(C(F)(F)F)cc21 [F-120]
6.87	> 20	CC(C)n1nc(CC(=O)Nc2nc3ccc(C(F)(F)F)cn3n2)c(=O)c2ccc(C(F)(F)F)cc21 [F-121]
